Test results published in patent US20250160332A1, “HERBICIDAL COMBINATIONS AND A METHOD FOR CONTROLLING UNDESIRED VEGETATION” (UPL MAURITIUS LIMITED, priority 2022, published 2025).

Experiments:
Amaranthus hybridus = assay: Post-emergence herbicidal activity, efficacy on Amaranthus hybridus (Colby method); format: in vivo
Procedure: (§1) The following products were used for evaluating the weed control efficacy of present herbicidal combinations.
(§2) Methodology: Trials were carried out to evaluate the efficacy of the combinations comprising L-glufosinate ammonium and additional herbicides on Amaranthus genus weeds.
(§3) The soil used was sandy clay loam-sand: 68.0%; silt: 8.0%; clay: 24.0%.
(§4) All treatments were in 3 replications per treatment with a spray volume of 150 L/ha.
(§5) Efficacy Evaluation: The expected efficacy of the combination comprising L-glufosinate ammonium and additional herbicides was calculated using the well-established Colby method.
In the Colby method, the expected (or predicted) response of a combination of herbicides is calculated by taking the product of the observed response for each individual component of the combination when applied alone, divided by 100, and subtracting this value from the sum of the observed response for each component when applied alone. An unexpected enhancement in efficacy of the combination is then determined by comparing the observed response of the combination to the expected (or predicted) response as calculated from the observed response of each individual component alone. If the observed response of the combination is greater than the expected (or predicted) response, or stated conversely, if the difference between the observed and expected response is greater than zero, then the combination is said to be synergistic or unexpectedly effective (Colby, S. R., Weeds, 1967(15), p. 20-22). The Colby method requires only a single dose of each herbicide applied alone and the mixture of both doses. The formula used to calculate the expected efficacy (EE) which was compared with the observed efficacy (OE) to determine the efficacy of the present disclosure is explained herein:
The expected efficacy for a combination of two active ingredients is as follows:
The expected efficacy for a combination of three active ingredients is as follows:
[formula] • wherein, • A=Observed efficacy of active ingredient A at the same concentration as used in the mixture. • B=Observed efficacy of the active ingredient B at the same concentration as used in the mixture. • C=Observed efficacy of the active ingredient C at the same concentration as used in the mixture.
Experiment was conducted to assess the efficacy of herbicidal combination comprising L-glufosinate ammonium (glufosinate-P-ammonium) and saflufenacil to control the weed, Amaranthus hybridus.
The percentage efficacy was calculated after 3 days of applications (DAA). The target weed was Amaranthus hybridus, and the concentration of the herbicide and the results are recorded in Table 7.
Experiment was conducted to assess the efficacy of herbicidal combination comprising L-glufosinate ammonium, saflufenacil and triclopyr to control the weed Amaranthus hybridus.
The percentage efficacy was calculated after 3 DAA. The target weed was Amaranthus hybridus, and the concentration of the herbicide and the results are recorded in Table 8.
Experiment was conducted to assess the efficacy of herbicidal combination comprising L-glufosinate ammonium, saflufenacil and 2,4-D Choline to control the weed, Amaranthus hybridus.
The percentage efficacy was calculated after 3 DAA. The target weed was Amaranthus hybridus, and the concentration of the herbicide and the results are recorded in Table 9.
Experiment was conducted to assess the efficacy of herbicidal combination comprising L-glufosinate ammonium and quizalofop-ethyl to control the weed, Amaranthus hybridus.
The percentage efficacy was calculated after 3 DAA and 14 DAA. The target weed was Amaranthus hybridus, and the concentration of the herbicide and the results are recorded in Table 10.
Experiment was conducted to assess the efficacy of herbicidal combination comprising L-glufosinate ammonium and quizalofop-p-tefuryl to control the weed, Amaranthus hybridus
The percentage efficacy was calculated after 3 DAA and 14 DAA.

Amaranthus viridis = assay: Post-emergence herbicidal activity, efficacy on Amaranthus viridis (Colby method); format: in vivo
Procedure: as §1, §2, §3, §4, §5
In the Colby method, the expected (or predicted) response of a combination of herbicides is calculated by taking the product of the observed response for each individual component of the combination when applied alone, divided by 100, and subtracting this value from the sum of the observed response for each component when applied alone. An unexpected enhancement in efficacy of the combination is then determined by comparing the observed response of the combination to the expected (or predicted) response as calculated from the observed response of each individual component alone. […]
The percentage efficacy was calculated after 3 DAA and 7 DAA. The target weed was Amaranthus viridis, and the concentration of the herbicide and the results are recorded in Table 12. […]

## C[N+](C)(C)CCO.O=C([O-])COc1ccc(Cl)cc1Cl [2,4-D Choline]
Amaranthus hybridus; Table 9, 3 DAA, 228 g a.i./ha
  Observed efficacy (%) of 2,4-D Choline (228 g a.i./ha): 95%

## CS(=O)(=O)c1ccc(C(=O)C2C(=O)CCCC2=O)c([N+](=O)[O-])c1 [Mesotrione]
Amaranthus viridis; Table 12, 3 DAA
  Observed efficacy (%) of Mesotrione (100 g a.i./ha): 10%
Amaranthus viridis; Table 12, 7 DAA
  Observed efficacy (%) of Mesotrione (100 g a.i./ha): 30%

## CC(C)N(C)S(=O)(=O)NC(=O)c1cc(-n2c(=O)cc(C(F)(F)F)n(C)c2=O)c(F)cc1Cl [Saflufenacil]
Amaranthus hybridus; Table 7, 3 DAA
  Observed efficacy (%) of Saflufenacil (30 g a.i./ha): 50%
Amaranthus hybridus; Table 8, 3 DAA
  Observed efficacy (%) of Saflufenacil (30 g a.i./ha): 50%
Amaranthus hybridus; Table 9, 3 DAA
  Observed efficacy (%) of Saflufenacil (30 g a.i./ha): 50%

## O=C(O)COc1nc(Cl)c(Cl)cc1Cl [Triclopyr]
Amaranthus hybridus; Table 8, 3 DAA, 228 g a.i./ha
  Observed efficacy (%) of Triclopyr (228 g a.i./ha): 95%

## CCOC(=O)C(C)Oc1ccc(Oc2cnc3cc(Cl)ccc3n2)cc1 (centres unmarked) [quizalofop-ethyl, Quizalofop-ethyl]
Amaranthus hybridus; Table 10, 3 DAA
  Observed efficacy (%) of quizalofop-ethyl (25 g a.i./ha): 0%
Amaranthus hybridus; Table 10, 14 DAA
  Observed efficacy (%) of quizalofop-ethyl (25 g a.i./ha): 0%

## C[C@@H](Oc1ccc(Oc2cnc3cc(Cl)ccc3n2)cc1)C(=O)OCC1CCCO1 (some centres unmarked) [quizalofop-p-tefuryl, Quizalofop-p-tefuryl]
Amaranthus hybridus; Table 11, 3 DAA
  Observed efficacy (%) of quizalofop-p-tefuryl (25 g a.i./ha): 0%
Amaranthus hybridus; Table 11, 14 DAA
  Observed efficacy (%) of quizalofop-p-tefuryl (25 g a.i./ha): 0%
